Among the data in patent US20230159484A1, “FLUORESCENT DYES HAVING HIGH STOKES SHIFT, ON THE BASIS OF BRIDGED BENZOPYRYLIUM SALTS” (DYOMICS GmbH, priority 2020, published 2023) are ε, λmax and λem values, retold here.

Assay type in all cases: physicochemical
The nature of series [1]: UV-Vis absorption (absorption maximum, extinction coefficient). The procedure: (§1) Depending on the basic structure and substitution, the absorption maxima lie in the entire range of visible light, with a focus at 500-530 nm. The compounds show a high Stokes shift in the range of 80 nm. The absorption is measured, for example, at 25° C. in aqueous or ethanolic solutions with an extinction of 1.0 using a Specord 205 from Analytik Jena, wherein the aqueous solutions are preferably phosphate-buffered salt solutions (PBS buffer; approx. 100 mM sodium chloride and 100 mM total phosphate) and have a pH of 7.5. For example, the emission is measured at 25° C. in dilute aqueous or ethanolic solutions with an extinction of 0.1 using a FP-6600 spectrofluorometer from Jasco, wherein the dilute aqueous solutions are preferably phosphate-buffered salt solutions (PBS buffer; about 100 mM sodium chloride and 100 mM total phosphate) and have a pH of 7.5.

Series [2] can be described thus: Fluorescence emission (emission maximum). Conditions: in PBS. The procedure:
as §1

The nature of series [3]: Fluorescence emission (emission maximum).

As to `CCN(CCCCCC(=O)O)c1ccc2c(c1)OC1=C(c3ccncc3)C(=O)CC(C)(C)C1=C2` [Compound 44, 6-[[8,8-dimethyl-6-oxo-5-(4-pyridyl)-7H-xanthene-3-yl]-ethyl-amino]hexanoic Acid], the ε is 13,000 l/mol*cm in series [1] (UV-Vis in PBS) and 13300 L/mol/cm in series [1] (UV-Vis in buffer pH 5). The results for the λmax in series [1] (UV-Vis in PBS) and in series [1] (UV-Vis in buffer pH 5) were 472 nm and 523 nm, respectively. Moreover, the figures for the λem in series [2] and in series [3] (in buffer pH 5) were 573 nm and 600 nm, respectively.

For the molecule `CC1(C)CC(=O)C(S(=O)(=O)[O-])=C2Oc3cc(O)ccc3C=C21.[Na+]` [Compound 39, 6-hydroxy-1,1-dimethyl-3-oxo-2H-xanthene-4-sulfonate Sodium Salt], the λmax in series [1] (UV-Vis in PBS) was found to be 409 nm; in series [1] (UV-Vis in buffer pH 9), 462 nm. Besides, the λem was 485 nm in series [2] and 536 nm in series [3] (in buffer pH 9).

As for `CC1(C)CC(=O)C(c2ccncc2)=C2Oc3cc(N(CCCCCC(=O)O)CCCS(=O)(=O)[O-])ccc3C=C21.[Na+]` [Compound 45, 3-[5-carboxypentyl-[8,8-dimethyl-6-oxo-5-(4-pyridyl)-7H-xanthene-3-yl]amino]propane-1-sulfonate Sodium Salt], the ε was 15000 L/mol/cm in series [1] (UV-Vis in PBS) and 15400 L/mol/cm in series [1] (UV-Vis in buffer pH 5). Also, the results for the λmax in series [1] (UV-Vis in PBS) and in series [1] (UV-Vis in buffer pH 5) were 470 nm and 524 nm, respectively. Further, the λem in series [2] is listed as 570 nm; in series [3] (in buffer pH 5), 594 nm.
